Laboratory results: US10640506B2, “Cyclobutyl substituted pyrrolopyridine and pyrrolopyrimidines derivatives as JAK inhibitors” (Incyte Corporation, priority 2010, dated 2020)
pIC50: −log10 of the molar value. Where a name gives a salt, the structure may show the parent alone. Read-outs that look alike come from different tables or passages of the source. Each block holds one molecule with its values, some of them ahead of it.

Assays:
JAK2 (a.a. 828-1132) = target: T1, JAK2 (a.a. 828-1132) (Homo sapiens, UniProt O60674); test: In vitro JAK kinase assay (HTRF, phosphorylation of biotinylated peptide), JAK2; assay type: biochemical; settings: for IC50: read-out: JAK2 IC50 (nM) at 1 mM ATP, Table F; for pIC50: 1 mM ATP, read-out: JAK2 IC50
T1 construct: JAK2 (a.a. 828-1132); His tag (N)
Method: Compounds herein were tested for inhibitory activity of JAK targets according to the following in vitro assay described in Park et al., Analytical Biochemistry 1999, 269, 94-104. The catalytic domains of human JAK1 (a.a. 837-1142) and JAK2 (a.a. 828-1132) with an N-terminal His tag were expressed using baculovirus in insect cells and purified. The catalytic activity of JAK1 and JAK2 was assayed by measuring the phosphorylation of a biotinylated peptide. The phosphorylated peptide was detected by homogenous time resolved fluorescence (HTRF). […] Reactions were carried out at room temperature for 1 hour and then stopped with 20 μL 45 mM EDTA, 300 nM SA-APC, 6 nM Eu-Py20 in assay buffer (Perkin Elmer, Boston, Mass.). Binding to the Europium labeled antibody took place for 40 minutes and HTRF signal was measured on a Fusion plate reader (Perkin Elmer, Boston, Mass.). See Tables A-F for data related to compounds of the Examples (at 1 mM). Data is indicated as ranges, wherein “+” is less than 10 nM; “++” is 10 nM to 25 nM; “+++” is greater than 25 nM to 100 nM; and “++++” is greater than 100 nM. Greater than 25 nM to 100 nM specifies a range with a lower endpoint “at greater than 25 nM” and an upper endpoint at 100 nM.

[1] = target: human JAK1 (a.a. 837-1142) (Homo sapiens, UniProt P23458); test: In vitro JAK kinase assay (HTRF, phosphorylation of biotinylated peptide), JAK1; assay type: biochemical; settings: for pIC50: 1 mM ATP, read-out: JAK1 IC50
Method: Compounds herein were tested for inhibitory activity of JAK targets according to the following in vitro assay described in Park et al., Analytical Biochemistry 1999, 269, 94-104. The catalytic domains of human JAK1 (a.a. 837-1142) and JAK2 (a.a. 828-1132) with an N-terminal His tag were expressed using baculovirus in insect cells and purified. The catalytic activity of JAK1 and JAK2 was assayed by measuring the phosphorylation of a biotinylated peptide. The phosphorylated peptide was detected by homogenous time resolved fluorescence (HTRF). […] Reactions were carried out at room temperature for 1 hour and then stopped with 20 μL 45 mM EDTA, 300 nM SA-APC, 6 nM Eu-Py20 in assay buffer (Perkin Elmer, Boston, Mass.). Binding to the Europium labeled antibody took place for 40 minutes and HTRF signal was measured on a Fusion plate reader (Perkin Elmer, Boston, Mass.). […] Data is indicated as ranges, wherein “+” is less than 10 nM; “++” is 10 nM to 25 nM; “+++” is greater than 25 nM to 100 nM; and “++++” is greater than 100 nM. Greater than 25 nM to 100 nM specifies a range with a lower endpoint “at greater than 25 nM” and an upper endpoint at 100 nM.

Sequence of human JAK1 (a.a. 837-1142) (P23458 849-1154): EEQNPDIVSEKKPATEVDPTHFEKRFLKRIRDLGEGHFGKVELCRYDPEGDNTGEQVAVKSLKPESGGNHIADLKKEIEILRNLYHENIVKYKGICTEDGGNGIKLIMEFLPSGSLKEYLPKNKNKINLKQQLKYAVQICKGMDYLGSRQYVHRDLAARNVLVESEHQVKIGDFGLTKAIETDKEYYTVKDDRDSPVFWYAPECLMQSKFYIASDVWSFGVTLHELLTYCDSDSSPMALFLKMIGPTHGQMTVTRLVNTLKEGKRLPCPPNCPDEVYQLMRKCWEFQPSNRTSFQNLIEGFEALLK
T1 sequence (O60674 828-1132): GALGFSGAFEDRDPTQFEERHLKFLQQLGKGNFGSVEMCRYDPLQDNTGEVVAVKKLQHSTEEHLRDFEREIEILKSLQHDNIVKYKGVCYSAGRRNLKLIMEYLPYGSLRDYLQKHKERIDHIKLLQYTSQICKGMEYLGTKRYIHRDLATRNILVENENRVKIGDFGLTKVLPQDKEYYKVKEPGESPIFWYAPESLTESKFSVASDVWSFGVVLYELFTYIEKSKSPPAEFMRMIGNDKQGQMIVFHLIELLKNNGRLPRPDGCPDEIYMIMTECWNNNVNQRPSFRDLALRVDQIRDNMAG

SMILES: N#CCC1(n2cc(-c3ncnc4[nH]ccc34)cn2)CC(N2CCC(Oc3cc(CCO)nc(C(F)(F)F)n3)CC2)C1 (single isomer, unassigned; peak 1) [Example 164, peak 1, {trans-3-(4-{[6-(2-hydroxyethyl)-2-(trifluoromethyl)pyrimidin-4-yl]oxy}piperidin-1-yl)-1-[4-(7H-pyrrolo[2,3-d]pyrimidin-4-yl)-1H-pyrazol-1-yl]cyclobutyl}acetonitrile]
IC50 (JAK2 (a.a. 828-1132)): > 100 nM
IC50 ([1]; read-out: JAK1 IC50 (nM) at 1 mM ATP, Table F, listed as 164, peak 1): 10 to 25 nM

SMILES: N#CCC1(n2cc(-c3ncnc4[nH]ccc34)cn2)CC(N2CCC(Oc3cc(CCO)nc(C(F)(F)F)n3)CC2)C1 (single isomer, unassigned; peak 2) [Example 164, peak 2, {cis-3-(4-{[6-(2-hydroxyethyl)-2-(trifluoromethyl)pyrimidin-4-yl]oxy}piperidin-1-yl)-1-[4-(7H-pyrrolo[2,3-d]pyrimidin-4-yl)-1H-pyrazol-1-yl]cyclobutyl}acetonitrile]
IC50 (JAK2 (a.a. 828-1132)): > 100 nM
IC50 ([1]; read-out: JAK1 IC50 (nM) at 1 mM ATP, Table F, listed as 164, peak 2): 25 to 100 nM

SMILES: N#CC[C@]1(n2cc(-c3ncnc4[nH]ccc34)cn2)C[C@@H](N2CCN(Cc3cc(F)cc(C#N)c3)CC2)C1 [Example 1a, 3-[(4-{cis-3-(cyanomethyl)-3-[4-(7H-pyrrolo[2,3-d]pyrimidin-4-yl)-1H-pyrazol-1-yl]cyclobutyl}piperazin-1-yl)methyl]-5-fluorobenzonitrile]
pIC50 (JAK2 (a.a. 828-1132); Table A): < 7.00
pIC50 ([1]; Table A): > 8.00

SMILES: N#CC[C@]1(n2cc(-c3ncnc4[nH]ccc34)cn2)C[C@H](N2CCN(Cc3cc(F)cc(C#N)c3)CC2)C1 [Example 1b, 3-[(4-{trans-3-(cyanomethyl)-3-[4-(7H-pyrrolo[2,3-d]pyrimidin-4-yl)-1H-pyrazol-1-yl]cyclobutyl}piperazin-1-yl)methyl]-5-fluorobenzonitrile]
pIC50 (JAK2 (a.a. 828-1132); Table B): 7.00 to 7.60
pIC50 ([1]; Table B): > 8.00

SMILES: CN(C)c1ccc(CN2CCN([C@H]3C[C@@](CC#N)(n4cc(-c5ncnc6[nH]ccc56)cn4)C3)CC2)c(F)c1C#N [Example 2a, 3-[(4-{cis-3-(cyanomethyl)-3-[4-(7H-pyrrolo[2,3-d]pyrimidin-4-yl)-1H-pyrazol-1-yl]cyclobutyl}piperazin-1-yl)methyl]-6-(dimethylamino)-2-fluorobenzonitrile]
pIC50 (JAK2 (a.a. 828-1132); Table A): 7.00 to 7.60
pIC50 ([1]; Table A): > 8.00

SMILES: CN(C)c1ccc(CN2CCN([C@H]3C[C@](CC#N)(n4cc(-c5ncnc6[nH]ccc56)cn4)C3)CC2)c(F)c1C#N [Example 2b, 3-[(4-{trans-3-(cyanomethyl)-3-[4-(7H-pyrrolo[2,3-d]pyrimidin-4-yl)-1H-pyrazol-1-yl]cyclobutyl}piperazin-1-yl)methyl]-6-(dimethylamino)-2-fluorobenzonitrile]
pIC50 (JAK2 (a.a. 828-1132); Table B): 7.00 to 7.60
pIC50 ([1]; Table B): > 8.00

SMILES: N#CC[C@]1(n2cc(-c3ncnc4[nH]ccc34)cn2)C[C@@H](N2CCN(C(=O)Nc3ccc(F)cc3C(F)(F)F)CC2)C1 [Example 3a, 4-{cis-3-(cyanomethyl)-3-[4-(7H-pyrrolo[2,3-d]pyrimidin-4-yl)-1H-pyrazol-1-yl]cyclobutyl}-N-[4-fluoro-2-(trifluoromethyl)phenyl]piperazine-1-carboxamide 2.4×(trifluoroacetate) Salt]
pIC50 (JAK2 (a.a. 828-1132); Table A): < 7.00
pIC50 ([1]; Table A): 7.00 to 7.60

SMILES: N#CC[C@]1(n2cc(-c3ncnc4[nH]ccc34)cn2)C[C@H](N2CCN(C(=O)Nc3ccc(F)cc3C(F)(F)F)CC2)C1 [Example 3b, 4-{3-(cyanomethyl)-3-[4-(7H-pyrrolo[2,3-d]pyrimidin-4-yl)-1H-pyrazol-1-yl]cyclobutyl}-N-[4-fluoro-2-(trifluoromethyl)phenyl]piperazine-1-carboxamide 2.3×(trifluoroacetate) Salt]
pIC50 (JAK2 (a.a. 828-1132); Table B): < 7.00
pIC50 ([1]; Table B): 7.60 to 8.00

SMILES: C[C@H]1CCCN1C(=O)N1CCN([C@H]2C[C@@](CC#N)(n3cc(-c4ncnc5[nH]ccc45)cn3)C2)CC1 [Example 4a, {cis-3-(4-{[(2S)-2-methylpyrrolidin-1-yl]carbonyl}piperazin-1-yl)-1-[4-(7H-pyrrolo[2,3-d]pyrimidin-4-yl)-1H-pyrazol-1-yl]cyclobutyl}acetonitrile]
pIC50 (JAK2 (a.a. 828-1132); Table A): < 7.00
pIC50 ([1]; Table A): 7.00 to 7.60

SMILES: C[C@H]1CCCN1C(=O)N1CCN([C@H]2C[C@](CC#N)(n3cc(-c4ncnc5[nH]ccc45)cn3)C2)CC1 [Example 4b, {trans-3-(4-{[(2S)-2-methylpyrrolidin-1-yl]carbonyl}piperazin-1-yl)-1-[4-(7H-pyrrolo[2,3-d]pyrimidin-4-yl)-1H-pyrazol-1-yl]cyclobutyl}acetonitrile]
pIC50 (JAK2 (a.a. 828-1132); Table B): < 7.00
pIC50 ([1]; Table B): > 8.00

SMILES: CC[C@H]1CCCN1C(=O)N1CCN([C@H]2C[C@](CC#N)(n3cc(-c4ncnc5[nH]ccc45)cn3)C2)CC1 [Example 5, {trans-3-(4-{[(2S)-2-ethylpyrrolidin-1-yl]carbonyl}piperazin-1-yl)-1-[4-(7H-pyrrolo[2,3-d]pyrimidin-4-yl)-1H-pyrazol-1-yl]cyclobutyl}acetonitrile]
pIC50 (JAK2 (a.a. 828-1132); Table B): < 7.00
pIC50 ([1]; Table B): > 8.00

SMILES: N#CC[C@]1(n2cc(-c3ncnc4[nH]ccc34)cn2)C[C@@H](N2CCN(C(=O)c3ccnc(C(F)(F)F)c3F)CC2)C1 [Example 6a, {cis-3-{4-[3-fluoro-2-(trifluoromethyl)isonicotinoyl]piperazin-1-yl}-1-[4-(7H-pyrrolo[2,3-d]pyrimidin-4-yl)-1H-pyrazol-1-yl]cyclobutyl}acetonitrile]
pIC50 (JAK2 (a.a. 828-1132); Table A): < 7.00
pIC50 ([1]; Table A): 7.60 to 8.00

SMILES: N#CC[C@]1(n2cc(-c3ncnc4[nH]ccc34)cn2)C[C@H](N2CCN(C(=O)c3ccnc(C(F)(F)F)c3F)CC2)C1 [Example 6b, {trans-3-{4-[3-fluoro-2-(trifluoromethyl)isonicotinoyl]piperazin-1-yl}-1-[4-(7H-pyrrolo[2,3-d]pyrimidin-4-yl)-1H-pyrazol-1-yl]cyclobutyl}acetonitrile]
pIC50 (JAK2 (a.a. 828-1132); Table B): 7.00 to 7.60
pIC50 ([1]; Table B): > 8.00

Now from value to molecule:

pIC50 (JAK2 (a.a. 828-1132); Table A): < 7.00
pIC50 ([1]; Table A): 7.60 to 8.00
SMILES: N#CC[C@]1(n2cc(-c3ncnc4[nH]ccc34)cn2)C[C@@H](N2CCN(C(=O)c3ccnc(C(F)(F)F)n3)CC2)C1 [Example 7a, [cis-1-[4-(7H-pyrrolo[2,3-d]pyrimidin-4-yl)-1H-pyrazol-1-yl]-3-(4-{[2-(trifluoromethyl)pyrimidin-4-yl]carbonyl}piperazin-1-yl)cyclobutyl]acetonitrile]

pIC50 (JAK2 (a.a. 828-1132); Table B): 7.00 to 7.60
pIC50 ([1]; Table B): > 8.00
SMILES: N#CC[C@]1(n2cc(-c3ncnc4[nH]ccc34)cn2)C[C@H](N2CCN(C(=O)c3ccnc(C(F)(F)F)n3)CC2)C1 [Example 7b, [trans-1-[4-(7H-pyrrolo[2,3-d]pyrimidin-4-yl)-1H-pyrazol-1-yl]-3-(4-{[2-(trifluoromethyl)pyrimidin-4-yl]carbonyl}piperazin-1-yl)cyclobutyl]acetonitrile]

pIC50 (JAK2 (a.a. 828-1132); Table A): 7.00 to 7.60
pIC50 ([1]; Table A): > 8.00
SMILES: N#CC[C@]1(n2cc(-c3ncnc4[nH]ccc34)cn2)C[C@@H](N2CCN(C(=O)c3cc(F)cc(F)c3)CC2)C1 [Example 8a, {cis-3-[4-(3,5-difluorobenzoyl)piperazin-1-yl]-1-[4-(7H-pyrrolo[2,3-d]pyrimidin-4-yl)-1H-pyrazol-1-yl]cyclobutyl}acetonitrile]

pIC50 (JAK2 (a.a. 828-1132); Table B): > 8.00
pIC50 ([1]; Table B): > 8.00
SMILES: N#CC[C@]1(n2cc(-c3ncnc4[nH]ccc34)cn2)C[C@H](N2CCN(C(=O)c3cc(F)cc(F)c3)CC2)C1 [Example 8b, {trans-3-[4-(3,5-difluorobenzoyl)piperazin-1-yl]-1-[4-(7H-pyrrolo[2,3-d]pyrimidin-4-yl)-1H-pyrazol-1-yl]cyclobutyl}acetonitrile]

pIC50 (JAK2 (a.a. 828-1132); Table A): < 7.00
pIC50 ([1]; Table A): 7.60 to 8.00
SMILES: N#CC[C@]1(n2cc(-c3ncnc4[nH]ccc34)cn2)C[C@@H](N2CCN(C(=O)c3cc(F)cnc3Cl)CC2)C1 [Example 9a, {cis-3-{4-[(2-chloro-5-fluoropyridin-3-yl)carbonyl]piperazin-1-yl}-1-[4-(7H-pyrrolo[2,3-d]pyrimidin-4-yl)-1H-pyrazol-1-yl]cyclobutyl}acetonitrile]
